Test results as given in PubChem BioAssay (NCI).
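Here, GI50 denotes the concentration required for 50% inhibition of growth. The concentration for full growth arrest is given as TGI.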

What was measured:
Assay in all cases: NCI anticancer screen, dose series, 384-well format
SF-268 CNS = tested on: SF-268 CNS
MCF7 breast = tested on: MCF7 breast
IGROV1 ovarian = tested on: IGROV1 ovarian
PC-3 prostate = tested on: PC-3 prostate
ACHN renal = tested on: ACHN renal
SF-539 CNS = tested on: SF-539 CNS
HCC-2998 colon = tested on: HCC-2998 colon
SF-295 CNS = tested on: SF-295 CNS
UO-31 renal = tested on: UO-31 renal
MOLT-4 leukemia = tested on: MOLT-4 leukemia
A498 renal = tested on: A498 renal
RPMI-8226 leukemia = tested on: RPMI-8226 leukemia
SK-OV-3 ovarian = tested on: SK-OV-3 ovarian
HS 578T breast = tested on: HS 578T breast
MDA-MB-435 melanoma = tested on: MDA-MB-435 melanoma
T-47D breast = tested on: T-47D breast
HOP-92 NSCLC = tested on: HOP-92 NSCLC
HCT-116 colon = tested on: HCT-116 colon
LOX IMVI melanoma = tested on: LOX IMVI melanoma
BT-549 breast = tested on: BT-549 breast
NCI-H322M lung = tested on: NCI-H322M lung
OVCAR-4 ovarian = tested on: OVCAR-4 ovarian
SNB-75 CNS = tested on: SNB-75 CNS
UACC-257 melanoma = tested on: UACC-257 melanoma
M14 melanoma = tested on: M14 melanoma
TK-10 renal = tested on: TK-10 renal
MDA-MB-468 breast = tested on: MDA-MB-468 breast
NCI-H460 NSCLC = tested on: NCI-H460 NSCLC
HL-60(TB) leukemia = tested on: HL-60(TB) leukemia
NCI-H226 lung = tested on: NCI-H226 lung
KM12 colon = tested on: KM12 colon
OVCAR-3 ovarian = tested on: OVCAR-3 ovarian
SW-620 colon = tested on: SW-620 colon
DU-145 prostate = tested on: DU-145 prostate
HT29 colon = tested on: HT29 colon
HCT-15 colon = tested on: HCT-15 colon
786-0 renal = tested on: 786-0 renal
RXF 393 renal = tested on: RXF 393 renal
EKVX NSCLC = tested on: EKVX NSCLC
SK-MEL-5 melanoma = tested on: SK-MEL-5 melanoma
CAKI-1 renal = tested on: CAKI-1 renal
MALME-3M melanoma = tested on: MALME-3M melanoma
NCI-H23 lung = tested on: NCI-H23 lung
OVCAR-5 ovarian = tested on: OVCAR-5 ovarian
SK-MEL-28 melanoma = tested on: SK-MEL-28 melanoma
U251 glioblastoma = tested on: U251 glioblastoma
A549 NSCLC = tested on: A549 NSCLC
SR leukemia = tested on: SR leukemia
HOP-62 NSCLC = tested on: HOP-62 NSCLC
UACC-62 melanoma = tested on: UACC-62 melanoma
OVCAR-8 ovarian = tested on: OVCAR-8 ovarian
SNB-19 CNS = tested on: SNB-19 CNS
COLO 205 colon = tested on: COLO 205 colon
SN12C renal = tested on: SN12C renal
MDA-MB-231 breast = tested on: MDA-MB-231 breast
NCI-H522 lung = tested on: NCI-H522 lung
NCI/ADR-RES ovarian = tested on: NCI/ADR-RES ovarian

For `COc1cc2nccc(Oc3ccc(NC(=O)Nc4cc(C)on4)c(Cl)c3)c2cc1OC`, the GI50 (SF-268 CNS) was 3.06 µM, the TGI (SF-268 CNS) was 8.86 µM and the GI50 (MCF7 breast) was 4.99 µM. It also gave a TGI (MCF7 breast) of 31.6 µM, a GI50 (IGROV1 ovarian) of 2.22 µM and a TGI (IGROV1 ovarian) of 5.21 µM. The GI50 (PC-3 prostate) was 6.29 µM, the TGI (PC-3 prostate) was > 100 µM and the GI50 (ACHN renal) was 3.53 µM. The TGI (ACHN renal) was 11.6 µM, the GI50 (SF-539 CNS) was 1.24 µM and the TGI (SF-539 CNS) was 2.95 µM. It also gave a GI50 (HCC-2998 colon) of 23.9 µM, a TGI (HCC-2998 colon) of 91.9 µM and a GI50 (SF-295 CNS) of 3.18 µM. It also gave a TGI (SF-295 CNS) of 11.5 µM, a GI50 (UO-31 renal) of 2.75 µM and a TGI (UO-31 renal) of 5.98 µM. The GI50 (MOLT-4 leukemia) was 1.45 µM, the TGI (MOLT-4 leukemia) was 2.99 µM and the GI50 (A498 renal) was 5.6 µM. The TGI (A498 renal) was 21 µM, the GI50 (RPMI-8226 leukemia) was 3.79 µM and the TGI (RPMI-8226 leukemia) was 15.1 µM. For the same compound, the GI50 (SK-OV-3 ovarian) was 6.78 µM, the TGI (SK-OV-3 ovarian) was 67.1 µM and the GI50 (HS 578T breast) was 2.08 µM. The TGI (HS 578T breast) was 7.41 µM, the GI50 (MDA-MB-435 melanoma) was 7.46 µM and the TGI (MDA-MB-435 melanoma) was 73.4 µM. The GI50 (T-47D breast) was 4.17 µM, the TGI (T-47D breast) was 23.1 µM and the GI50 (HOP-92 NSCLC) was 1.7 µM. It also gave a TGI (HOP-92 NSCLC) of 3.33 µM, a GI50 (HCT-116 colon) of 3.51 µM and a TGI (HCT-116 colon) of 11.5 µM. For the same compound, the GI50 (LOX IMVI melanoma) was 4.08 µM, the TGI (LOX IMVI melanoma) was 11 µM and the GI50 (BT-549 breast) was 3.2 µM. It also gave a TGI (BT-549 breast) of 7.18 µM, a GI50 (NCI-H322M lung) of 3.91 µM and a TGI (NCI-H322M lung) of 13.9 µM. For the same compound, the GI50 (OVCAR-4 ovarian) was 5.71 µM, the TGI (OVCAR-4 ovarian) was 25 µM and the GI50 (SNB-75 CNS) was 2.53 µM. For the same compound, the TGI (SNB-75 CNS) was 6.7 µM, the GI50 (UACC-257 melanoma) was 11.9 µM and the TGI (UACC-257 melanoma) was 30.3 µM. For the same compound, the GI50 (M14 melanoma) was 3.72 µM, the TGI (M14 melanoma) was 15.3 µM and the GI50 (TK-10 renal) was 19.9 µM. For the same compound, the TGI (TK-10 renal) was > 100 µM, the GI50 (MDA-MB-468 breast) was 3.51 µM and the TGI (MDA-MB-468 breast) was 8.5 µM. It also gave a GI50 (NCI-H460 NSCLC) of 4.58 µM, a TGI (NCI-H460 NSCLC) of 19 µM and a GI50 (HL-60(TB) leukemia) of 2.87 µM. The TGI (HL-60(TB) leukemia) was 5.3 µM, the GI50 (NCI-H226 lung) was 0.906 µM and the TGI (NCI-H226 lung) was 3.39 µM. For the same compound, the GI50 (KM12 colon) was 0.346 µM, the TGI (KM12 colon) was > 100 µM and the GI50 (OVCAR-3 ovarian) was 5.25 µM. For the same compound, the TGI (OVCAR-3 ovarian) was 20.1 µM, the GI50 (SW-620 colon) was 2.82 µM and the TGI (SW-620 colon) was 7.18 µM. The GI50 (DU-145 prostate) was 5.63 µM, the TGI (DU-145 prostate) was 81.3 µM and the GI50 (HT29 colon) was 3.17 µM. The TGI (HT29 colon) was 12.1 µM, the GI50 (HCT-15 colon) was 4.16 µM and the TGI (HCT-15 colon) was > 100 µM. The GI50 (786-0 renal) was 3.79 µM, the TGI (786-0 renal) was 12 µM and the GI50 (RXF 393 renal) was 1.65 µM. The TGI (RXF 393 renal) was 4.28 µM, the GI50 (EKVX NSCLC) was 4.4 µM and the TGI (EKVX NSCLC) was 20.9 µM. The GI50 (SK-MEL-5 melanoma) was 3.35 µM, the TGI (SK-MEL-5 melanoma) was 11.8 µM and the GI50 (CAKI-1 renal) was 2.67 µM. The TGI (CAKI-1 renal) was 6.87 µM, the GI50 (MALME-3M melanoma) was 1.81 µM and the TGI (MALME-3M melanoma) was 4.39 µM. It also gave a GI50 (NCI-H23 lung) of 2.65 µM, a TGI (NCI-H23 lung) of 7.77 µM and a GI50 (OVCAR-5 ovarian) of 4.4 µM. It also gave a TGI (OVCAR-5 ovarian) of 21.2 µM, a GI50 (SK-MEL-28 melanoma) of 4.26 µM and a TGI (SK-MEL-28 melanoma) of 21 µM. The GI50 (U251 glioblastoma) was 9.48 µM, the TGI (U251 glioblastoma) was > 100 µM and the GI50 (A549 NSCLC) was 3.25 µM. It also gave a TGI (A549 NSCLC) of 11 µM, a GI50 (SR leukemia) of 3.73 µM and a TGI (SR leukemia) of 5.34 µM. For the same compound, the GI50 (HOP-62 NSCLC) was 9.77 µM, the TGI (HOP-62 NSCLC) was > 100 µM and the GI50 (UACC-62 melanoma) was 2.9 µM. It also gave a TGI (UACC-62 melanoma) of 13.5 µM, a GI50 (OVCAR-8 ovarian) of 4.45 µM and a TGI (OVCAR-8 ovarian) of 41 µM. The GI50 (SNB-19 CNS) was 16.6 µM, the TGI (SNB-19 CNS) was > 100 µM and the GI50 (COLO 205 colon) was 2.59 µM. For the same compound, the TGI (COLO 205 colon) was 8.26 µM, the GI50 (SN12C renal) was 2.95 µM and the TGI (SN12C renal) was 9.88 µM. For the same compound, the GI50 (MDA-MB-231 breast) was 2.38 µM, the TGI (MDA-MB-231 breast) was 6.83 µM and the GI50 (NCI-H522 lung) was 2.51 µM. For the same compound, the TGI (NCI-H522 lung) was 6.54 µM, the GI50 (NCI/ADR-RES ovarian) was 2.9 µM and the TGI (NCI/ADR-RES ovarian) was 8.81 µM.
